# Measured values published in PMC8253220, “Molecular design, synthesis and in vitro biological evaluation of thienopyrimidine–hydroxamic acids as chimeric kinase HDAC inhibitors: a challenging approach to combat cancer” (Journal of Enzyme Inhibition and Medicinal Chemistry, 2021).
# Where two headings read alike, the source gives them in different places.
# Legend:
# EGFR = EGFR (Homo sapiens, UniProt P00533); conditions: cited from earlier work
# VEGFR2 = conditions: cited from earlier work
# HER2 = conditions: Figure 2; cited from earlier work
# HDAC = conditions: Figure 2; cited from earlier work
# HDAC6 [1] = molecular target: T1, HDAC6 (Homo sapiens, UniProt Q9UBN7); conditions: Figure 2; cited from earlier work
# T1 construct: purchased BPS Bioscience 50006
# T1 sequence (Q9UBN7 1-1215): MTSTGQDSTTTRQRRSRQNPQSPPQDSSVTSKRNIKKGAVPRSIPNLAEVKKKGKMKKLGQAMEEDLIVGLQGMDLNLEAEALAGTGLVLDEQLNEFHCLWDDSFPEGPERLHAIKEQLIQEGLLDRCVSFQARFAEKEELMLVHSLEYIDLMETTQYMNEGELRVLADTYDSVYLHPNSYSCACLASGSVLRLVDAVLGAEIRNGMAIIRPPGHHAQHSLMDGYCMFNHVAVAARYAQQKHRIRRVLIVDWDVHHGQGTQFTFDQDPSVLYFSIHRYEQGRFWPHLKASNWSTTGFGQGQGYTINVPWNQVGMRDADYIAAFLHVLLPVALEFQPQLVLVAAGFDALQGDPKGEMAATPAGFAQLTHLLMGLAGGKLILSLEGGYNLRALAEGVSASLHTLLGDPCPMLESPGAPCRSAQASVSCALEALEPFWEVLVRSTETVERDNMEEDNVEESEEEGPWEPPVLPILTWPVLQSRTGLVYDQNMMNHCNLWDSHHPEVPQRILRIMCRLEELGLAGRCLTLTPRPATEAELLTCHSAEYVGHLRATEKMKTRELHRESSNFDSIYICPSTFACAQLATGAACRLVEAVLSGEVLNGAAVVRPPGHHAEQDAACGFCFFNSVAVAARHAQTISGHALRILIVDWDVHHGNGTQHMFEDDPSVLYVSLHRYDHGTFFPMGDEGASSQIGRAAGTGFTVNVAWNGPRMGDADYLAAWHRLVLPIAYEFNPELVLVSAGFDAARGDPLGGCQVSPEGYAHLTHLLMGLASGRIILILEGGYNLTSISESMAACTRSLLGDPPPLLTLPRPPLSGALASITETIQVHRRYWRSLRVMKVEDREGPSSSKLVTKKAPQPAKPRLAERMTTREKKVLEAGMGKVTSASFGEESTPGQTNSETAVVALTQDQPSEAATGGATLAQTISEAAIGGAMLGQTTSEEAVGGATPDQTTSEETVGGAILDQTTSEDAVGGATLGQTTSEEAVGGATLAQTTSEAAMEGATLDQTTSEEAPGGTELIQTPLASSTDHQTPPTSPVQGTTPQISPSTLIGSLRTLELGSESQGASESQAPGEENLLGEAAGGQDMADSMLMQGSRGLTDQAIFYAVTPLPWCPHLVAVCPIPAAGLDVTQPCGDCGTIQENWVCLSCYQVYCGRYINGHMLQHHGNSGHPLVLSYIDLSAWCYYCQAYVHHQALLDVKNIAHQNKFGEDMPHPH
# Hela nuclear extracts = assay: Hela nuclear extract HDAC inhibitor assay (BPS Bioscience); format: biochemical
# Description: The purpose of the study is to determine the effects of twenty compounds from Misr International University on the enzymatic activities of hela nuclear extracts using an in vitro […]
# 7a Solution 10mM DMSO 10 10 % DMSO in
# 7b Solution 10mM DMSO 10 10 % DMSO in
# 7d Solution 10mM DMSO 10 10 % DMSO in
# 2.3 Experimental Conditions
# 2.3.1 Enzymes and Substrates
# Assay Catalog # Substrate
# Hela Nuclear Exctract 50053 10 µM HDAC Substrate 3
# For the hela nuclear extracts, hela cells were grown to 90 % confluency. Hela nuclear extracts were prepared from the Nuclear Extraction Kit from abcam (Catalog # ab113474). The final total protein concentration was calculated to be 2.4 µg/µl. From this, the hela nuclear extracts was diluted 20-fold in HDAC assay buffer and 5 µl of the dilution was added to a 50 µl reaction.
# The compounds are dissolved in DMSO. A series of dilutions of the compounds were prepared with 10% DMSO in HDAC assay buffer and 5 µl of the dilution was added to a 50 µl reaction so that the final concentration of DMSO is 1 % in all of […]
# The enzymatic reactions for the hela nuclear extract were conducted in duplicate at 37 °C for 60 minutes in a 50 µl mixture containing HDAC assay buffer, 5 µg BSA, an HDAC substrate (see 2.3.1), hela nuclear extract, and a test compound (see 2.2).
# After enzymatic reactions, 50μl of 2 x HDAC Developer was added to each well for the hela nuclear extract and the plate was incubated at room temperature for an additional 15 […]
# Fluorescence intensity was measured at an excitation of 360 nm and an emission of 460 nm using a Tecan Infinite M1000 microplate reader.
# Hela nuclear extract activity assays were performed in duplicates at each concentration.
# The fluorescent intensity data were analyzed using the computer software, Graphpad Prism. In the absence of the compound, the fluorescent intensity (Ft) in each data set was defined as 100% activity. In the absence of hela nuclear extract, the fluorescent intensity (Fb) in each data set was defined as 0% activity. The percent activity in the presence of each compound was calculated according to the following equation: %activity = (F-Fb)/(Ft-Fb), where F= the fluorescent intensity in the presence of the compound.
# The values of percentage activity were plotted on a bar graph.
# HDAC6 [2] = molecular target: T1, HDAC6; assay: In vitro HDAC6 inhibitory assay (BPS Bioscience, fluorogenic); format: biochemical; conditions: read-out: % Inhibition HDAC6
# Description: (1 picture or pasted object on this page, not shown here)
# HDAC activity assays were performed in duplicates at each concentration. The
# [3] = Figure 3, read-out: VEGFR2 IC50
# Sequence of EGFR (P00533 25-1210): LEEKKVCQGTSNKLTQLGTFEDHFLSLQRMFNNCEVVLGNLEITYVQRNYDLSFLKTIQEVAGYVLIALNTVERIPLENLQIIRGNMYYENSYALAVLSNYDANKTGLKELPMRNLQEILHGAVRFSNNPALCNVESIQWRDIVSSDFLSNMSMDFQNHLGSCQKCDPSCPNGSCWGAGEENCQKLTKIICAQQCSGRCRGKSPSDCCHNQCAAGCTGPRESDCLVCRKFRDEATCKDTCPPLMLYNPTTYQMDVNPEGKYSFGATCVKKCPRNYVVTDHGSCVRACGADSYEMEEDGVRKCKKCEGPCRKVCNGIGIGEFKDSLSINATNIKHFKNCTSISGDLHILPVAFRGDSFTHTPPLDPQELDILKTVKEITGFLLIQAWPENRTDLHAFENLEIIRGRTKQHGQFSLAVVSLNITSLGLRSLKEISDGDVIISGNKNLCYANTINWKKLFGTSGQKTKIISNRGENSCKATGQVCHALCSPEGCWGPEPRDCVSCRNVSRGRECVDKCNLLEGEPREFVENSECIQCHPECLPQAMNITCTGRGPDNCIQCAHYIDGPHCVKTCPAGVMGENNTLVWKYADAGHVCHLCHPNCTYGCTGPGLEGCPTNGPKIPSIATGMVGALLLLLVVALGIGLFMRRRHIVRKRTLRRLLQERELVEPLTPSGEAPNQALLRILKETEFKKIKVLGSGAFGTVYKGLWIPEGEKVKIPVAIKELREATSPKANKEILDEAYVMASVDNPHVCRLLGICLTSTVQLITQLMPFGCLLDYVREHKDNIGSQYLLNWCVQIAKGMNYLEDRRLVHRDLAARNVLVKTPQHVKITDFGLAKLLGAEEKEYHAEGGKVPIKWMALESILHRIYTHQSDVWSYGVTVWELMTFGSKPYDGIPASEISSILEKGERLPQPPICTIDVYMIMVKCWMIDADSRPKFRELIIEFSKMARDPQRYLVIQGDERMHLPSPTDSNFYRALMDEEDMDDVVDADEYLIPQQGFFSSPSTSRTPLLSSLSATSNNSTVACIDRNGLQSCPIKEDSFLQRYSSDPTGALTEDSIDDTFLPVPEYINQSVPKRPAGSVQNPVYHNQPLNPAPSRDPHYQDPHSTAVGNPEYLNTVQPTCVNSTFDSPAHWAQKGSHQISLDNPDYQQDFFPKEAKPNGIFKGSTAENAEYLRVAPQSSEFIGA
molecule,measurement,setting,value
O=C(Nc1cccc(Br)c1)Nc1ccc(Oc2ncnc3sc4c(c23)CCCCC4)cc1Cl [Compound E],IC50,EGFR; Figure 3,1260 nM
same,IC50,VEGFR2; [3],15 nM
"C#Cc1cccc(Nc2ncnc3cc(OC)c(OCCCCCCC(=O)NO)cc23)c1 [CUDC-101, 7-(4-(3-ethynylphenylamino)-7-methoxyquinazolin-6-yloxy)-N-hydroxyheptanamide]",IC50,HER2,15 nM
Vandetanib,IC50,VEGFR2; read-out: IC50 VEGFR-2,40 nM
COc1cc2ncnc(Nc3ccc(Br)cc3)c2cc1OCCCCCCC(=O)NO [compound B],IC50,"VEGFR2; Figure 2, read-out: VEGFR2 IC50",74 nM
same,IC50,HDAC,2.2 nM
Clc1ccc(Oc2ncnc3sc4c(c23)CCCCC4)cc1 [Compound D],IC50,VEGFR2; [3],340 nM
O=C(CCCCCCn1cc(-c2ccc3ncnc(Nc4ccc(Br)cc4F)c3c2)nn1)NO [compound C],IC50,EGFR; Figure 2,4.4 nM
same,IC50,HDAC,3.2 nM
same,IC50,HDAC6 [1],6 nM
"CC(C=CC(=O)NO)=CC(C)C(=O)c1ccc(N(C)C)cc1 (stereo not shown) [TSA, reference compound]",% Inhibition Hela Nuclear Extracts,Hela nuclear extracts; 0.0003 µM (printed 0.0003 M),7%
same,% Inhibition Hela Nuclear Extracts,Hela nuclear extracts; 0.003 µM (printed 0.003 M),46%
same,% Inhibition Hela Nuclear Extracts,Hela nuclear extracts; 0.03 µM (printed 0.03 M),88%
same,inhibition at 0.0005 µM,HDAC6 [2],23%
same,inhibition at 0.005 µM,HDAC6 [2],73%
same,inhibition at 0.05 µM,HDAC6 [2],95%
